# Patent publication US11833125B2, “Pharmaceutical composition for controlled release of treprostinil” (Pharmosa Biopharm Inc., priority 2018, dated 2023)
# Experiments:
# Sprague Dawley rats = assay: Safety evaluation of inhaled composition: cage-side observation of upper airway irritation; format: in vivo; details: nebulized, nose-only inhalation, 6 μg/kg/day for 10 days; frequency of clinical signs in 10 inhalations; n = 3
# Protocol: In this study, 8 male Sprague Dawley rats (purchased from BioLASCO Taiwan Co., Ltd.) were divided into 3 groups: control group (n=2), comparative group (n=3) and experimental group (n=3). The experimental group rats and the comparative group rats were placed in restraining tubes and given nebulized treprostinil liposomal composition LB11500 from Example 2 and free treprostinil solution, respectively, at a dosage of 6 μg/kg/day for 10 days, via a 20-port nose-only Buxco inhalation exposure system (DSI, USA). An air flow carried aerosol generated by mesh vibrating nebulizer was provided to the system tower where the rats are encased in, at a rate of 10 L/min. The control group rats received no exposure to the drug.
# During the study, cage-side clinical observation was performed on each rat by a single observer to record incidences of upper airway irritation due to the inhaled nebulized treprostinil liposomal composition or free treprostinil solution. Manifestations of upper airway irritation include tension, sneezing, erythematous pinnae, tremor, hunched posture, piloerection, tachypnea and labored breathing, hyperpnea and epistaxis.
# [1] = In vivo pharmacokinetics study, intra-tracheal administration, plasma treprostinil by LC-MS/MS; parameters: species or system Sprague-Dawley rats; details: rat, FIGS. 1A and 1B
# Protocol: In this in vivo PK study, Sprague-Dawley rats (purchased from BioLASCO Taiwan Co., Ltd.) were anaesthetized with isoflurane, and positioned securely on its back to an arched platform in a dorsal position at a 45° to 50° plane using a ribbon hooked around upper incisors. A microspray aerosol tip (Microsprayer, PennCentury, Philadelphia, USA) was inserted to the tracheal bifurcation of each rat, and a test sample (i.e., compositions in Table 2 or free treprostinil solution) was administered intra-tracheally to each rat at a given dose using a high-pressure syringe that is attached to the microspray aerosol device. […] The blood sample was then centrifuged at approximately 2500×g for 15 min and at 4±2° C. within 1 hour of collection, so as to separate the plasma from the blood cells. Approximately 0.1 mL of the obtained plasma sample from each rat was added into a new storage tube and stored in a freezer with a temperature maintained at −70±2° C. […] The obtained supernatant (150 μL) was mixed with an equal volume of H2O and analyzed by liquid chromatography-tandem mass spectrometry (LC-MS/MS) to determine the treprostinil concentration in the plasma sample of the rat. […]
compound,measurement,setting,value
"CCCCC[C@H](O)CC[C@@H]1[C@H]2Cc3cccc(OCC(=O)O)c3C[C@H]2C[C@H]1O [free treprostinil, treprostinil]",Incidences of upper airway irritation,Sprague Dawley rats,17
same,time at which plasma treprostinil concentration peaked,[1],≤ 5 min
